Measurements taken from the CheMixHub viscosity set.

Experiment: xn = mol fraction of the nth substance listed

C1CC[C@H]2CCCC[C@H]2C1 + CC1CCCCC1
viscosity [mPa·s], 100 kPa
Conditions | x2 = 0.125 | x2 = 0.25 | x2 = 0.375 | x2 = 0.5 | x2 = 0.625 | x2 = 0.75 | x2 = 0.875
293.15 K | 2.749 | 2.287 | 1.867 | 1.541 | 1.3 | 1.076 | 0.894
303.15 K | 2.241 | 1.912 | 1.567 | 1.312 | 1.096 | 0.935 | 0.776
313.15 K | 1.858 | 1.6 | 1.326 | 1.123 | 0.944 | 0.824 | 0.674
323.15 K | 1.578 | 1.367 | 1.168 | 0.986 | 0.837 | 0.701 | 0.604

CC(CC(C)(C)C)CC(C)(C)CC(C)(C)C (stereo not drawn) + CC1CCCCC1
viscosity [mPa·s], 100 kPa
Conditions | x2 = 0.125 | x2 = 0.25 | x2 = 0.375 | x2 = 0.5 | x2 = 0.625 | x2 = 0.75 | x2 = 0.875
293.15 K | 3.188 | 2.761 | 2.275 | 1.89 | 1.52 | 1.244 | 0.967
303.15 K | 2.553 | 2.272 | 1.864 | 1.556 | 1.283 | 1.047 | 0.834
313.15 K | 2.1 | 1.886 | 1.574 | 1.32 | 1.096 | 0.908 | 0.725
323.15 K | 1.766 | 1.538 | 1.329 | 1.136 | 0.953 | 0.802 | 0.641

CCCC(C)O (stereo not drawn) + CC1CCCCC1
viscosity [mPa·s], 100 kPa
Conditions | x2 = 0.081 | x2 = 0.16 | x2 = 0.2399 | x2 = 0.3501 | x2 = 0.4399 | x2 = 0.56 | x2 = 0.6499 | x2 = 0.7401 | x2 = 0.8499 | x2 = 0.94
293.15 K | 3.09 | 2.46 | 1.96 | 1.48 | 1.23 | 1.05 | 0.98 | 0.93 | 0.88 | 0.8
298.15 K | 2.56 | 2.05 | 1.66 | 1.26 | 1.06 | 0.92 | 0.86 | 0.82 | 0.79 | 0.73
303.15 K | 2.15 | 1.74 | 1.43 | 1.11 | 0.95 | 0.83 | 0.79 | 0.77 | 0.73 | 0.68
308.15 K | 1.83 | 1.5 | 1.24 | 0.99 | 0.86 | 0.75 | 0.71 | 0.69 | 0.67 | 0.63
313.15 K | 1.57 | 1.31 | 1.1 | 0.89 | 0.78 | 0.7 | 0.67 | 0.65 | 0.63 | 0.59
318.15 K | 1.35 | 1.13 | 0.96 | 0.8 | 0.72 | 0.66 | 0.64 | 0.62 | 0.6 | 0.57
323.15 K | 1.17 | 1 | 0.86 | 0.72 | 0.66 | 0.61 | 0.58 | 0.57 | 0.56 | 0.54

COCCO + CC1COC(=O)O1
viscosity [mPa·s], 101.33 kPa
Conditions | 298.15 K | 308.15 K | 318.15 K
x1 = 0.0271 | 2.41 | – | –
x1 = 0.0632 | 2.298 | 1.913 | 1.612
x1 = 0.0927 | 2.24 | – | –
x1 = 0.1045 | 2.193 | 1.824 | 1.541
x1 = 0.1523 | 2.104 | 1.756 | 1.484
x1 = 0.1824 | 2.057 | – | –
x1 = 0.2117 | 2.004 | 1.679 | 1.423
x1 = 0.2527 | 1.95 | 1.634 | 1.381
x1 = 0.2995 | 1.917 | – | –
x1 = 0.305 | 1.89 | 1.581 | 1.339
x1 = 0.3489 | 1.843 | 1.537 | 1.306
x1 = 0.397 | 1.794 | 1.492 | 1.273
x1 = 0.4053 | 1.813 | – | –
x1 = 0.4225 | 1.787 | – | –
x1 = 0.4547 | 1.745 | 1.456 | 1.224
x1 = 0.4942 | 1.738 | – | –
x1 = 0.4979 | 1.717 | 1.43 | 1.214
x1 = 0.5467 | 1.7 | – | –
x1 = 0.5531 | 1.68 | – | 1.183
x1 = 0.5954 | 1.664 | 1.385 | 1.172
x1 = 0.5956 | 1.674 | – | –
x1 = 0.6388 | – | 1.361 | 1.147
x1 = 0.6429 | 1.652 | – | –
x1 = 0.6954 | 1.619 | 1.341 | 1.127
x1 = 0.7027 | 1.626 | – | –
x1 = 0.7088 | 1.626 | – | –
x1 = 0.7346 | 1.593 | 1.325 | 1.111
x1 = 0.7911 | 1.602 | – | –
x1 = 0.7959 | 1.574 | 1.31 | 1.098
x1 = 0.8414 | 1.569 | 1.297 | 1.083
x1 = 0.864 | 1.575 | – | –
x1 = 0.9025 | 1.545 | 1.276 | 1.076
x1 = 0.9325 | 1.552 | – | –
x1 = 0.9593 | 1.546 | 1.266 | 1.055
x2 = 0.0163 | 1.534 | – | –

CCCC(=O)O + CC#N
viscosity [mPa·s], 101 kPa
Conditions | x1 = 0.0598 | x1 = 0.1252 | x1 = 0.1971 | x1 = 0.2763 | x1 = 0.3641 | x1 = 0.4621 | x1 = 0.572 | x1 = 0.6961 | x1 = 0.8375
298.15 K | 0.3944 | 0.4377 | 0.5044 | 0.5968 | 0.717 | 0.8653 | 1.039 | 1.229 | 1.415
308.15 K | 0.3452 | 0.3849 | 0.4455 | 0.5285 | 0.6349 | 0.7632 | 0.9084 | 1.058 | 1.187
318.15 K | 0.3146 | 0.3681 | 0.4272 | 0.4922 | 0.5632 | 0.6398 | 0.7209 | 0.8039 | 0.8836

COCCO + CC#N
298 K, 101.33 kPa
Conditions | viscosity [mPa·s]
x1 = 0.097 | 0.391
x1 = 0.1987 | 0.455
x1 = 0.2949 | 0.529
x1 = 0.404 | 0.631
x1 = 0.4985 | 0.736
x1 = 0.5987 | 0.866
x1 = 0.6932 | 0.991
x1 = 0.7991 | 1.171
x1 = 0.9035 | 1.361
